From US20100113421A1, “NON-NUCLEOSIDE REVERSE TRANSCRIPTASE INHIBITORS” (priority 2006, published 2010)

Test system: HIV strain containing the Y181C mutation
Test: Spread assay, Y181C mutant strain
Type: cell-based
Settings: Human immunodeficiency virus 1; spread assay, 10% FBS, Y181C mutant strain; read-out: CIC95
Experimental: Assays for the inhibition of acute HIV-1 infection of T-lymphoid cells (alternatively referred to herein as the “spread assay”) were conducted in accordance with Vacca, J. P. et al., Proc. Natl. Acad. Sci. USA 1994, 91: 4096. The assays (using 10% FBS) tested for inhibition of wild type HIV-1 and of HIV strains containing the Y181C or K103N mutation. […] (Note that the compound of Example 6 was tested only up to a 833 nM concentration and the CIC95 value was determined to be >833 nM. The compound of Example 78 was not tested in the Y1818C assay.) The compounds of Examples 1 to 119 (including Examples 70A and 70B) had CIC95 values of less than 1000 nanomolar in the assay employing the K103N mutant strain. In an analogous assay employing a mutant strain containing both the K103N and Y181C mutations, the compounds of Examples 70A, 70B and 78-115 had CIC95 values of less than 1000 nanomolar.

| Compound | IC95 [µM] |
| --- | --- |
| Cc1c(C(=O)N(C)Cc2ccccc2F)[nH]c(C(N)=O)c1S(=O)(=O)c1cccc(F)c1 [Example 16, N-(2-fluorobenzyl)-N,3-dimethyl-4-(3-fluorophenylsulfonyl)-1H-pyrrole-2,5-dicarboxamide] | < 8 |
| Cc1c(C(=O)N(C)Cc2ccccc2Cl)[nH]c(C(N)=O)c1S(=O)(=O)c1cccc(F)c1 [Example 17, N-(2-chlorobenzyl)-N,3-dimethyl-4-(3-fluorophenylsulfonyl)-1H-pyrrole-2,5-dicarboxamide] | < 8 |
| Cc1c(C(=O)N(C)Cc2ccc(Cl)cc2F)[nH]c(C(N)=O)c1S(=O)(=O)c1cccc(F)c1 [Example 18, N-(4-chloro-2-fluorobenzyl)-N,3-dimethyl-4-(3-fluorophenylsulfonyl)-1H-pyrrole-2,5-dicarboxamide] | < 8 |
| Cc1c(C(=O)N(C)Cc2ccc(Cl)cc2Cl)[nH]c(C(N)=O)c1S(=O)(=O)c1cccc(F)c1 [Example 19, N-(2,4-dichlorobenzyl)-N,3-dimethyl-4-(3-fluorophenylsulfonyl)-1H-pyrrole-2,5-dicarboxamide] | < 8 |
| Cc1c(C(=O)N(C)Cc2ccccc2Cl)[nH]c(C(N)=O)c1S(=O)(=O)c1cccc(Cl)c1 [Example 20, N-(2-chlorobenzyl)-N,3-dimethyl-4-(3-chlorophenylsulfonyl)-1H-pyrrole-2,5-dicarboxamide] | < 8 |
| Cc1c(C(=O)N(C)Cc2ccc(Cl)cc2Cl)[nH]c(C(N)=O)c1S(=O)(=O)c1cccc(Cl)c1 [Example 21, N-(2,4-dichlorobenzyl)-N,3-dimethyl-4-(3-chlorophenylsulfonyl)-1H-pyrrole-2,5-dicarboxamide] | < 8 |
| Cc1c(C(=O)N(C)Cc2ccccc2)[nH]c(C(N)=O)c1S(=O)(=O)c1cccc(C(F)(F)F)c1 [Example 22, N-benzyl-N,3-dimethyl-4-(3-trifluoromethylphenylsulfonyl)-1H-pyrrole-2,5-dicarboxamide] | < 8 |
| Cc1c(C(=O)N(C)Cc2ccc(Cl)cc2Cl)[nH]c(C(N)=O)c1S(=O)(=O)c1cccc(C(F)(F)F)c1 [Example 23, N-(2,4-dichlorobenzyl)-N,3-dimethyl-4-(3-trifluoromethylphenylsulfonyl)-1H-pyrrole-2,5-dicarboxamide] | < 8 |
| Cc1cc(C)cc(S(=O)(=O)c2c(C(N)=O)[nH]c(C(=O)N(C)Cc3ccccc3F)c2C)c1 [Example 24, N-(2-fluorobenzyl)-N,3-dimethyl-4-(3,5-dimethylphenylsulfonyl)-1H-pyrrole-2,5-dicarboxamide] | < 8 |
| Cc1cc(C)cc(S(=O)(=O)c2c(C(N)=O)[nH]c(C(=O)N(C)Cc3ccccc3Cl)c2C)c1 [Example 25, N-(2-chlorobenzyl)-N,3-dimethyl-4-(3,5-dimethyiphenylsulfonyl)-1H-pyrrole-2,5-dicarboxamide] | < 8 |
| Cc1cc(C)cc(S(=O)(=O)c2c(C(N)=O)[nH]c(C(=O)N(C)Cc3ccc(Cl)cc3F)c2C)c1 [Example 26, N-(4-chloro-2-fluorobenzyl)-N,3-dimethyl-4-(3,5-dimethylphenylsulfonyl)-1H-pyrrole-2,5-dicarboxamide] | < 8 |
| Cc1cc(C)cc(S(=O)(=O)c2c(C(N)=O)[nH]c(C(=O)N(C)Cc3ccc(Cl)cc3Cl)c2C)c1 [Example 27, N-(2,4-dichlorobenzyl)-N,3-dimethyl-4-(3,5-dimethylphenylsulfonyl)-1H-pyrrole-2,5-dicarboxamide] | < 8 |
| Cc1c(C(=O)N(C)Cc2ccccc2)[nH]c(C(N)=O)c1S(=O)(=O)c1cc(F)cc(Cl)c1 [Example 28, N-benzyl-N,3-dimethyl-4-(3-chloro-5-fluorophenylsulfonyl)-1H-pyrrole-2,5-dicarboxamide] | < 8 |
| Cc1c(C(=O)N(C)Cc2ccccc2F)[nH]c(C(N)=O)c1S(=O)(=O)c1cc(F)cc(Cl)c1 [Example 29, N-(2-fluorobenzyl)-N,3-dimethyl-4-(3-chloro-5-fluorophenylsulfonyl)-1H-pyrrole-2,5-dicarboxamide] | < 8 |
